From US8575091B1, “Amylin analogues and pharmaceutical compositions thereof” (Novo Nordisk A/S, priority 2012, dated 2013) come the findings set out here.

The structures appear in SMILES notation. Numbered stars: 1 amine (or outer) side, 2 acyl side, 3 side chain; on linkers, the order of the positions; unused ones are H or OH. Bridge positions count the residues as written; N and C are the ends. Side chains are listed from the residue outwards. Peptide text beside a SMILES is read from it. * marks the point of attachment. C20 diacid = O=C(O)CCCCCCCCCCCCCCCCCCC(=O)*; γGlu = O=C(O)[C@H](CCC(=O)[*:2])N[*:1]; AEEA = NCCOCCOCC(=O)O

The target of experiment [1] is T1, human amylin receptor (amylin 3(a) receptor: human calcitonin receptor + RAMP-3) (Homo sapiens, UniProt O60896+P30988).
T1 construct: expressed in transfected cells
T1 sequence (P30988 25-474): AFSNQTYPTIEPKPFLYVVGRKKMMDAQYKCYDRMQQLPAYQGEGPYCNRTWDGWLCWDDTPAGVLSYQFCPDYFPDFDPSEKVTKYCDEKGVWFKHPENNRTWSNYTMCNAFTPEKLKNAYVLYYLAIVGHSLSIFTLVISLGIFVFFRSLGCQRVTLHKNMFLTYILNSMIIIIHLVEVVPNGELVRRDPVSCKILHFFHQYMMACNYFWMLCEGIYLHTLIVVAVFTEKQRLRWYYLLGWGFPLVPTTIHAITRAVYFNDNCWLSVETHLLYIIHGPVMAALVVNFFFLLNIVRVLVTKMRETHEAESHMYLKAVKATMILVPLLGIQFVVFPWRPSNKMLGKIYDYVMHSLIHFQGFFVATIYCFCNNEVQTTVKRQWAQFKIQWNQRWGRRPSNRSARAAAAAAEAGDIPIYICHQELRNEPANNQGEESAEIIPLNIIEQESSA
T1 sequence (O60896 24-148 partner): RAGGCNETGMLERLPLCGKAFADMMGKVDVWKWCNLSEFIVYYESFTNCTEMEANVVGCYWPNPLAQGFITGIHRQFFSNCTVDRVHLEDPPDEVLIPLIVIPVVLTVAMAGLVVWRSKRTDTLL
In words: Assay (II)a functional assay, human amylin receptor (CRE luciferase, BHK cells). It is filed as cell-based.

The next experiment addresses T2, human amylin receptor (Homo sapiens, UniProt O60896+P30988).
T2 construct: expressed in transfected cells
T2 sequence (P30988 25-474): T1 sequence (P30988 25-474)
T2 sequence (O60896 24-148 partner): T1 sequence (O60896 24-148 partner)
Kind of experiment: Assay (V) binding to the human amylin receptor (SPA, 125I-rat amylin). As for the experimental part: The binding assay was performed using scintillation proximity assay (SPA) beads (RPNQ0001) from PerkinElmer and cell membranes from the Amylin 3(a)/CRE-luc cells (as described in Assay (II)) were used. Membranes were prepared in the following way; the cells were rinsed with PBS and incubated with Versene for approximately 5 min before harvesting. The cells were flushed with PBS and the cell-suspension was centrifuged for 5 min at 1000 rpm. […] The resulting pellet was resuspended in buffer 2 and protein concentration was measured (BCA protein Assay, Pierce). The homogenate was kept cold during the whole procedure. The membranes were kept at −80° C. until use. The assay was performed in a 384 well Optiplate (PerkinElmer) in a total volume of 40 ul. Membranes were mixed with SPA beads. Final concentration of membranes 35 ng/μL final and SPA beads was 0.05 mg/well. Test-compounds were dissolved in DMSO and further diluted in assay buffer (50 mM Hepes, pH 7.4, 1 mM CaCl2, 5 mM MgCl2, 0.1% OA and 0.02% Tween20). […] Samples were analyzed on TopCounter™ (Packard). The IC50 was calculated using (one site binding competition analysis) GraphPad Prism5 as a measure of receptor affinity.

The mark [2] stands for this setting: Table 7b, human calcitonin receptor binding IC50 divided by human amylin receptor binding IC50.
Where [3] appears, read: Table 7c, human calcitonin receptor binding IC50 divided by human amylin receptor binding IC50.
Where [4] appears, read: human binding ratio, included for comparison.

Consider `CC[C@H](C)[C@H](NC(=O)[C@@H]1CCCN1C(=O)CNC(=O)[C@H](Cc1ccccc1)NC(=O)[C@H](CC(N)=O)NC(=O)[C@@H]1CCCN1C(=O)[C@H](CO)NC(=O)[C@H](CO)NC(=O)[C@H](Cc1c[nH]cn1)NC(=O)[C@H](CCCNC(=N)N)NC(=O)[C@H](CC(C)C)NC(=O)[C@H](Cc1ccccc1)NC(=O)[C@H](CCC(=O)O)NC(=O)[C@H](C)NC(=O)[C@H](CC(C)C)NC(=O)[C@H](CCCNC(=N)N)NC(=O)[C@H](CCC(N)=O)NC(=O)[C@@H](NC(=O)[C@H](C)NC(=O)[C@@H]1CSSC[C@H](NC(=O)[C@H](CCCCN)NC(=O)CC[C@H](NC(=O)CCCCCCCCCCCCCCCCCCC(=O)O)C(=O)O)C(=O)N[C@@H](CC(N)=O)C(=O)N[C@@H]([C@@H](C)O)C(=O)N[C@@H](C)C(=O)N[C@@H]([C@@H](C)O)C(=O)N1)[C@@H](C)O)C(=O)N[C@@H](CC(C)C)C(=O)N1CCC[C@H]1C(=O)N1CCC[C@H]1C(=O)N[C@H](C(=O)N[C@@H](CC(N)=O)C(=O)N[C@H](C(=O)NCC(=O)N[C@@H](CO)C(=O)N[C@@H](CC(N)=O)C(=O)N[C@H](C(=O)N[C@@H](Cc1ccc(O)cc1)C(N)=O)[C@@H](C)O)C(C)C)[C@@H](C)O` [Example 6] ({C20 diacid-γGlu}-KCNTATCATQRLAEFLRHSSPNFGPILPPTNVGSNTY-NH2; disulfide 2-7), for which the “Ratio hCT/hAmylin funct.” value is on record as 5.7 in experiment [1] (Table 6, human functional selectivity (hCTR EC50 / hAmylin-R EC50)); 5.7 in experiment [1] (Table 6a, human functional selectivity (hCTR EC50 / hAmylin-R EC50), at least 5); 5.7 in experiment [1] (Table 6i, hCTR funct. EC50 / hAmylin-R funct. EC50). The “Ratio hCT/hAmylin binding” value at human amylin receptor (setting [2]), on human amylin receptor (setting [3]) and on human amylin receptor (setting [4]) was 20.0 each time.
In the case of `CC[C@H](C)[C@H](NC(=O)[C@H](C)NC(=O)CNC(=O)[C@H](Cc1ccccc1)NC(=O)[C@H](CC(N)=O)NC(=O)[C@@H]1CCCN1C(=O)[C@H](CO)NC(=O)[C@H](CO)NC(=O)[C@H](Cc1c[nH]cn1)NC(=O)[C@H](CCCNC(=N)N)NC(=O)[C@H](CC(C)C)NC(=O)[C@H](Cc1ccccc1)NC(=O)[C@H](CC(N)=O)NC(=O)[C@H](C)NC(=O)[C@H](CC(C)C)NC(=O)[C@H](CCCNC(=N)N)NC(=O)[C@H](CCC(N)=O)NC(=O)[C@@H](NC(=O)[C@H](C)NC(=O)[C@@H]1CSSC[C@H](NC(=O)[C@@H](N)CCCCNC(=O)COCCOCCNC(=O)CC[C@H](NC(=O)CCCCCCCCCCCCCCCCCCC(=O)O)C(=O)O)C(=O)N[C@@H](CC(N)=O)C(=O)N[C@@H]([C@@H](C)O)C(=O)N[C@@H](C)C(=O)N[C@@H]([C@@H](C)O)C(=O)N1)[C@@H](C)O)C(=O)N1CCC[C@H]1C(=O)N[C@@H](CO)C(=O)N[C@@H](CO)C(=O)N[C@H](C(=O)N[C@@H](CC(N)=O)C(=O)N[C@H](C(=O)NCC(=O)N[C@@H](Cc1c[nH]cn1)C(=O)N[C@@H](CC(N)=O)C(=O)N[C@H](C(=O)N[C@@H](Cc1ccc(O)cc1)C(N)=O)[C@@H](C)O)C(C)C)[C@@H](C)O` [Example 76] (H-K([AEEA-γGlu-C20 diacid])CNTATCATQRLANFLRHSSPNFGAIPSSTNVGHNTY-NH2; disulfide 2-7 (inferred); N-terminus and C-terminus assumed), the “Ratio hCT/hAmylin binding” value at human amylin receptor (setting [2]), on human amylin receptor (setting [3]) and on human amylin receptor (setting [4]) was 80.0 in each case.
